Laboratory results from publication PMC7699381, “Rare-Earth Metal Complexes of the Antibacterial Drug Oxolinic Acid: Synthesis, Characterization, DNA/Protein Binding and Cytotoxicity Studies” (Molecules, 2020).

target: T1, Human serum albumin (HSA) (Homo sapiens, UniProt P02768); test: Fluorescence quenching of human serum albumin; settings: 2.5 µM HSA, compound up to 8 µM, λex 280 nm
T1 sequence (P02768 25-609): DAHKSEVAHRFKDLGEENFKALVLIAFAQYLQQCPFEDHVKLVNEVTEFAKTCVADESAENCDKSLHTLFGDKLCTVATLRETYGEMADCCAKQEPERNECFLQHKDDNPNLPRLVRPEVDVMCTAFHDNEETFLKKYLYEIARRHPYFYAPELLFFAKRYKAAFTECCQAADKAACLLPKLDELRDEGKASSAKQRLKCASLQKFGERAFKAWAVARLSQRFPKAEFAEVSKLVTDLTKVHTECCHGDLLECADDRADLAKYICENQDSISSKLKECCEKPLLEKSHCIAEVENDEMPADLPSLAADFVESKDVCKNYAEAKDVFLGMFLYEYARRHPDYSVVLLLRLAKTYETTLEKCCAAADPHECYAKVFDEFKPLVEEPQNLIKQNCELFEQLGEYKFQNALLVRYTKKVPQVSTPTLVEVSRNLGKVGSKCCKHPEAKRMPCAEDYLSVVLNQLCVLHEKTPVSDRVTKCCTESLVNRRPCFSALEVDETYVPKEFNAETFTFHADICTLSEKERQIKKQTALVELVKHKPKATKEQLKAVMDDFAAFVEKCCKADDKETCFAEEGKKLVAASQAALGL

Structure (SMILES) | quenching effect on HSA fluorescence peak
CCn1cc(C(=O)[O][Eu]([OH])[O]C(=O)c2cn(CC)c3cc4c(cc3c2=O)OCO4)c(=O)c2cc3c(cc21)OCO3.O [Eu oxo, [Eu(oxo)(OH)(H2O)]] | ~ 58%

same assay, conditions: 298 K

Structure (SMILES) | Ka (association binding constant), HSA | n (Hill Coefficient), HSA | n (Number of Binding Sites), HSA
CCn1cc(C(=O)[O][Eu]([OH])[O]C(=O)c2cn(CC)c3cc4c(cc3c2=O)OCO4)c(=O)c2cc3c(cc21)OCO3.O [Eu oxo, [Eu(oxo)(OH)(H2O)]] | (4.75 ± 0.80) × 10^5 M^−1 | 1.33 ± 0.18 | 1.11 ± 0.01

same assay, conditions: 298 K, 2.5 µM HSA, 0–8 µM compound, pH 7.4

Structure (SMILES) | Ksv (Stern-Volmer constant), HSA
CCn1cc(C(=O)[O][Eu]([OH])[O]C(=O)c2cn(CC)c3cc4c(cc3c2=O)OCO4)c(=O)c2cc3c(cc21)OCO3.O [Eu oxo, [Eu(oxo)(OH)(H2O)]] | 11.25 (± 0.92) × 10^4 M^−1

same assay, conditions: 298 K, 2.5 µM HSA, 0–8 µM compound, pH 7.4; listed as Eu-oxo

Structure (SMILES) | Ksv (Stern-Volmer constant), HSA
CCn1cc(C(=O)[O][Eu]([OH])[O]C(=O)c2cn(CC)c3cc4c(cc3c2=O)OCO4)c(=O)c2cc3c(cc21)OCO3.O [Eu oxo, [Eu(oxo)(OH)(H2O)]] | (11.25 ± 0.92) × 10^4 M^−1

same assay, conditions: 298 K, from KSV = Kq τ0

Structure (SMILES) | Kq (bimolecular quenching constant), HSA
CCn1cc(C(=O)[O][Eu]([OH])[O]C(=O)c2cn(CC)c3cc4c(cc3c2=O)OCO4)c(=O)c2cc3c(cc21)OCO3.O [Eu oxo, [Eu(oxo)(OH)(H2O)]] | 1.125e+13 M⁻¹ s⁻¹

same assay, conditions: 298 K, modified Stern-Volmer

Structure (SMILES) | fa (fraction of fluorophore accessible to the quencher), HSA
CCn1cc(C(=O)[O][Eu]([OH])[O]C(=O)c2cn(CC)c3cc4c(cc3c2=O)OCO4)c(=O)c2cc3c(cc21)OCO3.O [Eu oxo, [Eu(oxo)(OH)(H2O)]] | 0.94 ± 0.04

system: MDA-MB 231 (human breast adenocarcinoma); test: MTS cytotoxicity assay, MDA-MB 231 cells; format: cell-based; settings: 48 h of incubation
Protocol: (§1) For the evaluation of the cytotoxic effects of the complexes and ligand two human cancer cell lines were used, namely MDA-MB 231 (human breast adenocarcinoma) and LoVo (human colon adenocarcinoma); a normal cell line, human umbilical vein endothelial cells (HUVEC), was used as a reference. […] After 24 h and 48 h, respectively, cell viability was evaluated through MTS assay (data shown in Figures S16–S18) and the IC50 values were calculated (Table 5). The cytotoxicity assay is based on the ability of metabolically active cells to reduce MTS, a yellow tetrazolium salt, to the colored formazan, soluble in the culture medium; the concentration of formazan can be spectrophotometrically determined. […] PES is a cationic dye with high chemical stability that binds to MTS and forms a stable solution. […] The reduced MTS to formazan was spectrophotometrically measured at λ = 492 nm. The test was run on two cancer cell lines, LoVo and MDA-MB 231, and on a normal cell line, HUVEC. […] Cell viability data were obtained in triplicate (n = 3) and expressed as mean values ± standard deviations (SD). […] All assays were performed in 96-well microtiter plates with flat bottom (Falcon), using CellTiter 96 Aqueous One Solution Cell Proliferation Assay (Promega), an MTS-based colorimetric assay. The formazan was spectrophotometrically measured using the Tecan GENios Spectrophotometer.

Structure (SMILES) | IC50
CCn1cc(C(=O)[O][Eu]([OH])[O]C(=O)c2cn(CC)c3cc4c(cc3c2=O)OCO4)c(=O)c2cc3c(cc21)OCO3.O [Eu oxo, [Eu(oxo)(OH)(H2O)]] | 73.7 ± 19.8 µM

system: CT-DNA (double-stranded calf-thymus DNA); test: DNA binding by UV-Vis spectra (titration with CT-DNA); settings: 20 µM compound, 0–40 µM DNA, Tris-HCl pH 7.4, room temperature

Structure (SMILES) | Kb (DNA binding constant)
CCn1cc(C(=O)[O][Eu]([OH])[O]C(=O)c2cn(CC)c3cc4c(cc3c2=O)OCO4)c(=O)c2cc3c(cc21)OCO3.O [Eu oxo, [Eu(oxo)(OH)(H2O)]] | 10.72 (± 2.47) × 10^5 L∙mol^−1

system: EB-DNA system (CT-DNA); test: Competitive binding assay with ethidium bromide (EB) through fluorescence spectroscopy; design: species or system calf; settings: 10 µM CT-DNA, 2 µM EB, 0–40 µM compound, λex 500 nm
Description: The manner of binding to the DNA macromolecule can be investigated through competitive binding studies with ethidium bromide (3,8-diamino-5-ethyl-6-phenylphenanthridinium bromide), a fluorescent dye; due to its aromatic ring, it can intercalate between two adjacent base pairs in the DNA structure and form a complex which emits fluorescent light; displacing EB results in a quenching effect. The Stern-Volmer constant (KSV) and the dissociation constant (K50) have been calculated from the resulting data.
Competitive binding studies were carried out on a Jasco FP 6500 fluorometer at room temperature, using quartz cells of 1 cm path-length. The fluorescence spectra were recorded on 1.6 mL samples containing 10 µM CT-DNA and 2 µM EB in the absence and presence of increasing amounts (0–40 µM with an increment of 5 µM) of complexes and free ligands, respectively, after being kept in contact for 10 min at room temperature, under continuous stirring and in the dark. The excitation wavelength used was 500 nm and the spectra was recorded in the 520–800 nm range. Two control samples were used, the first one containing DMSO, DNA and EB and the second one just the complex.
Data from the assay can be interpreted using the classical Stern-Volmer equation (Equation (3)):(3) F0/F=1+ KSV·[Q] where F0 and F are the fluorescence intensities of the EB-DNA samples in the absence and presence of the tested compounds and [Q] is the concentration of the compound; KSV is the Stern-Volmer constant and can be calculated from the plot of F0/F vs. [Q] as the slope.
The ratio of binding relative to the control sample exposed only to DMSO was plotted against the logarithm of concentration. The data points were fitted using the modified Hill function with offset (Origin®) (Equation (4)):(4) y=A1+(A2−A1)×x^n/K50^n+x^n where y is the ratio of binding (F/F0) and x is the concentration, A1 is the minimum of y values, A2 is the maximum of y values, K50 is the concentration corresponding to 50% binding and n is the Hill coefficient.

Structure (SMILES) | Ksv (Stern-Volmer quenching constant, EB-DNA system)
CCn1cc(C(=O)[O][Eu]([OH])[O]C(=O)c2cn(CC)c3cc4c(cc3c2=O)OCO4)c(=O)c2cc3c(cc21)OCO3.O [Eu oxo, [Eu(oxo)(OH)(H2O)]] | (1.26 ± 0.02) × 10^4

same assay, conditions: concentration corresponding to 50% binding; 10 µM CT-DNA, 2 µM EB

Structure (SMILES) | K50 (EB Displacement Assay)
CCn1cc(C(=O)[O][Eu]([OH])[O]C(=O)c2cn(CC)c3cc4c(cc3c2=O)OCO4)c(=O)c2cc3c(cc21)OCO3.O [Eu oxo, [Eu(oxo)(OH)(H2O)]] | 40.15 ± 11.82 µM

system: LoVo (human colon adenocarcinoma); test: MTS cytotoxicity assay, LoVo cells; format: cell-based; settings: 48 h of incubation
Protocol: as §1

Structure (SMILES) | IC50
CCn1cc(C(=O)[O][Eu]([OH])[O]C(=O)c2cn(CC)c3cc4c(cc3c2=O)OCO4)c(=O)c2cc3c(cc21)OCO3.O [Eu oxo, [Eu(oxo)(OH)(H2O)]] | 107 ± 16 µM

system: HUVEC (normal human umbilical vein endothelial cells); test: MTS cytotoxicity assay, HUVEC normal cells; format: cell-based; settings: 48 h of incubation
Protocol: as §1

Structure (SMILES) | IC50
CCn1cc(C(=O)[O][Eu]([OH])[O]C(=O)c2cn(CC)c3cc4c(cc3c2=O)OCO4)c(=O)c2cc3c(cc21)OCO3.O [Eu oxo, [Eu(oxo)(OH)(H2O)]] | > 200 µM

target: T1, Human serum albumin (HSA); test: not given; settings: not given

Structure (SMILES) | Kd
CCn1cc(C(=O)[O][Eu]([OH])[O]C(=O)c2cn(CC)c3cc4c(cc3c2=O)OCO4)c(=O)c2cc3c(cc21)OCO3.O [Eu oxo, [Eu(oxo)(OH)(H2O)]] | 5.56 ± 0.86 µM

target: T2, Apo-transferrin (apo-Tf) (Homo sapiens, UniProt P02787); test: Fluorescence quenching of apo-transferrin; format: binding; settings: 1 µM apo-Tf, compound up to 8 µM, λex 295 nm
T2 construct: purchased Sigma Aldrich Chemical Co. (Schnelldorf, Germany)
T2 sequence (P02787 20-698): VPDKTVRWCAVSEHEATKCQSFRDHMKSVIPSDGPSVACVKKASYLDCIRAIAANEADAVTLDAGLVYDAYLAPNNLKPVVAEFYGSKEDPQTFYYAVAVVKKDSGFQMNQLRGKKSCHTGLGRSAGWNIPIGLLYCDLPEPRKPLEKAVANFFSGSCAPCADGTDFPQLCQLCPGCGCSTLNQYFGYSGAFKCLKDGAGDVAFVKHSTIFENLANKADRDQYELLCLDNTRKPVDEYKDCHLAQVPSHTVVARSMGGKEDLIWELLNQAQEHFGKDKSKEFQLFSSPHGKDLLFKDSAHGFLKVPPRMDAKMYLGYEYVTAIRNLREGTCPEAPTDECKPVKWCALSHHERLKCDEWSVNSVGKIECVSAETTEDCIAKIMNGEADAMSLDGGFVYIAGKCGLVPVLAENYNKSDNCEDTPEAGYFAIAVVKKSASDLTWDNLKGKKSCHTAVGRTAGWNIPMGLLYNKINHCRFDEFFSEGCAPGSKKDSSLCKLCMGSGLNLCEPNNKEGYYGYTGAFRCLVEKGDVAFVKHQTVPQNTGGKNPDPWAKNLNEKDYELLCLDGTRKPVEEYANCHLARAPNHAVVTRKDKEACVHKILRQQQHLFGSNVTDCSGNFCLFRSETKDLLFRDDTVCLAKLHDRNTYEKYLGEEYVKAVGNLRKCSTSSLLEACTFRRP

Structure (SMILES) | quenching effect on apo-Tf fluorescence peak
CCn1cc(C(=O)[O][Eu]([OH])[O]C(=O)c2cn(CC)c3cc4c(cc3c2=O)OCO4)c(=O)c2cc3c(cc21)OCO3.O [Eu oxo, [Eu(oxo)(OH)(H2O)]] | 50%

same assay, conditions: 298 K

Structure (SMILES) | Ka (association binding constant), apo-Tf | n (Hill Coefficient), apo-Tf | n (Number of Binding Sites), apo-Tf
CCn1cc(C(=O)[O][Eu]([OH])[O]C(=O)c2cn(CC)c3cc4c(cc3c2=O)OCO4)c(=O)c2cc3c(cc21)OCO3.O [Eu oxo, [Eu(oxo)(OH)(H2O)]] | (2.74 ± 0.41) × 10^4 M^−1 | 0.95 ± 0.21 | 0.88 ± 0.01

same assay, conditions: 298 K, 1 µM apo-Tf, 0–8 µM compound, pH 7.4

Structure (SMILES) | Ksv (Stern-Volmer constant), apo-Tf
CCn1cc(C(=O)[O][Eu]([OH])[O]C(=O)c2cn(CC)c3cc4c(cc3c2=O)OCO4)c(=O)c2cc3c(cc21)OCO3.O [Eu oxo, [Eu(oxo)(OH)(H2O)]] | (16.55 ± 0.94) × 10^4 M^−1

same assay, conditions: 298 K, from KSV = Kq τ0

Structure (SMILES) | Kq (bimolecular quenching constant), apo-Tf
CCn1cc(C(=O)[O][Eu]([OH])[O]C(=O)c2cn(CC)c3cc4c(cc3c2=O)OCO4)c(=O)c2cc3c(cc21)OCO3.O [Eu oxo, [Eu(oxo)(OH)(H2O)]] | 1.655e+13 M⁻¹ s⁻¹

same assay, conditions: 298 K, modified Stern-Volmer

Structure (SMILES) | fa (fraction of fluorophore accessible to the quencher), apo-Tf
CCn1cc(C(=O)[O][Eu]([OH])[O]C(=O)c2cn(CC)c3cc4c(cc3c2=O)OCO4)c(=O)c2cc3c(cc21)OCO3.O [Eu oxo, [Eu(oxo)(OH)(H2O)]] | 0.81 ± 0.02

same assay, conditions: 298 K; read-out: Kd, apo-Tf

Structure (SMILES) | Kd
CCn1cc(C(=O)[O][Eu]([OH])[O]C(=O)c2cn(CC)c3cc4c(cc3c2=O)OCO4)c(=O)c2cc3c(cc21)OCO3.O [Eu oxo, [Eu(oxo)(OH)(H2O)]] | 8.27 ± 4.17 µM
